Test results as given in patent publication US7628765B2, “Increasing retrievable cells from a breast duct” (Cytyc Corporation, priority 2001, dated 2009).

System: breast ducts of live rabbits
Assay: Ductal fluid collection after intraductal injection of mannitol solution in live rabbit
Assay type: in vivo, New Zealand rabbit
Settings: for recovery: out-flow liquid checked about an hour later
Experimental: The objective of these experiments was to test the effects of the introduction of a solution containing mannitol on the secretion of fluid from the breast ducts of live rabbits. New Zealand rabbit #3242, female, from Kraelik Farm in CA weighing 4.1 kg was used. The rabbit was anesthetized by injection of 200 mg of ketamine and 40 mg of Zylazine. A second injection of 100 mg of ketamine and 20 mg of xylazine was made 2 hours later to maintain the rabbit in a deep plane of anesthesia. The thorax and abdomen of the rabbit was shaved to expose the breasts and nipples.
A single lumen blue color catheter (O.D. 0.23″ ID 0.017; O.D. at the tip 0.011″-0.012″) was inserted into a duct in each nipple. Three nipples were tested, and 2 ducts per nipple were accessed with a catheter. The nipples were identified A, B, and C.
A duct on nipple A was injected with 0.20 ml of a 12.5% solution of D-Mannitol in H2O (available from Sigma Chemicals, St. Louis, Mo. cat# M-9546 lot 6710402: C6H14O6 FW 182.2) with a single catheter. The control duct on nipple A was injected with 0.20 ml of phosphate buffered saline (PBS). A microfuge tube was attached to the end of each catheter to collect out flow liquid. Ten minutes later 0.2 ml of a 12.5% solution of D-Mannitol in H2O was injected into the first duct and the second duct was injected with 0.20 ml of phosphate buffered saline, for a total volume injected in each duct of 0.40 ml.
A duct on nipple B was injected with 0.5 ml of a 12.5% solution of D-Mannitol in H2O with a single catheter. The control duct on nipple B was injected with 0.50 ml of phosphate buffered saline (PBS). A microfuge tube was attached to the end of each catheter to collect out-flow liquid.
A duct on nipple C was injected with 0.7 ml of a 12.5% solution of D-Mannitol in H2O with a single catheter. The control duct on nipple C was injected with 0.70 ml of phosphate buffered saline (PBS). A microfuge tube was attached to the end of each catheter to collect out flow liquid.
About an hour after the fluid containing mannitol or PBS was injected into the ducts via the catheters, the microfuge tubes were checked for whether any fluid was returned.

In the case of `OC[C@@H](O)[C@@H](O)[C@H](O)[C@H](O)CO` [mannitol, D-Mannitol], the “ducts from which fluid can be collected” value (ducts injected with 12.5% mannitol solution, 0.4-0.7 ml, PBS control 1 out of 3) is reported as “three out of three”, the recovery (nipple A, duct A1, 0.4 ml total of 12.5% solution (2 x 0.2 ml, 10 min apart) injected intraductally) is reported as 310 ul liquid and the recovery (nipple B, duct B1, 0.5 ml of 12.5% solution injected intraductally) is reported as 490 ul liquid. For the same compound, the recovery (nipple C, duct C1, 0.7 ml of 12.5% solution injected intraductally) was 280 ul liquid.
